Patent US12433952B2, “Antibody-drug conjugates targeting folate receptor alpha and methods of use” (ZYMEWORKS BC INC., priority 2022, dated 2025)

Experiments:
Type in all cases: cell-based
[1] = system: Calu-3 (lung cancer); test: In vitro cytotoxicity of camptothecin analogues (CellTiter-Glo); conditions: Homo sapiens, Calu-3, 96 h; 4 d incubation; read-out: pIC50 Calu-3 (converted)
Method in brief: (§1)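 IC50 values come from CellTiter-Glo luminescence measuring growth inhibition after 4 d compound exposure at 37° C; ZR-75-1 cells were exposed 5 d instead. Cells were plated at 20,000 cells/mL, except ZR-75-1 at 10,000 cells/mL, onto serial dilutions made in RPMI 1640 with 10% FBS.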

[2] = system: MDA-MB-468 (breast cancer); test: as above; conditions: Homo sapiens, MDA-MB-468, 96 h; 4 d incubation; read-out: pIC50 MDA-MB-468 (converted)
Method in brief: as §1

[3] = system: SKOV-3 (ovarian cancer); test: as above; conditions: Homo sapiens, SK-OV-3, 96 h; 4 d incubation; read-out: pIC50 SKOV-3 (converted)
Method in brief: as §1

[4] = system: ZR-75-1 (breast cancer); test: as above; conditions: Homo sapiens, ZR-75-1, 120 h; 5 d incubation; read-out: pIC50 ZR-75 (converted)
Method in brief: as §1

[5] = system: SK-BR-3 (breast cancer); test: as above; conditions: Homo sapiens, SK-BR-3, 96 h; 4 d incubation; read-out: pIC50 SKBR-3 (converted)
Method in brief: as §1

[6] = system: FRα-negative MDA-MB-468 cells co-cultured with FRα-positive JEG-3; test: Bystander activity of ADCs (mono-culture vs co-culture, flow cytometry); conditions: 4 days; for bystander activity / Average MDA-MB-468 Viability (%) Mono-culture / % Bystander Activity: 2 nM ADC; for bystander activity: viability of MDA-MB-468 in co-culture vs mono-culture; for Average MDA-MB-468 Viability (%) Co-culture: MDA-MB-468 co-cultured with JEG-3, 2 nM ADC; for Average MDA-MB-468 Viability (%) Co-culture / Average MDA-MB-468 Viability (%) Mono-culture: relative to untreated blank; for Average MDA-MB-468 Viability (%) Mono-culture: MDA-MB-468 mono-culture; for % Bystander Activity: mono-culture viability compared with co-culture viability
Description: The ability of the humanized variant v30384 conjugated to various drug-linkers to exert a bystander killing effect on cancer cells was assessed according to the method described below. Bystander killing most commonly occurs after target-specific uptake of an ADC into an antigen-positive cell. Trafficking and degradation of the ADC results in release of active catabolite free drug, which then crosses the cell membrane of nearby cells to elicit cell death.
FRα-positive JEG-3 and FRα-negative MDA-MB-468 cells were seeded either as mono-cultures or co-cultures in a 48-well plate at 20,000 cells and 10,000 cells, respectively, in 100 μL assay media (Minimum Essential Media supplemented with 10% Fetal Bovine Serum (both from Thermo Fisher Scientific, Waltham, MA)). ADCs were diluted to 4 nM in assay media and 100 μL was added to the cell-containing plates (2 nM final ADC concentration). Cells were incubated with ADCs for 4 days under standard culturing conditions (37° C./5% C02). Following incubation, cells were dissociated, washed, and stained using a viability dye, YO—PRO®-1 (ThermoFisher Scientific, Waltham, MA), and an anti-FRα antibody, mirvetuximab (v17716), conjugated to Alexa Fluor®647, for 20 minutes at 4° C. After incubation, cells were washed in FACS buffer (phosphate buffered saline pH 7.4 (ThermoFisher Scientific, Waltham, MA) supplemented with 2% FBS), resuspended in 70 μL FACS buffer per well, and 35 μL per well were analyzed on a BD LSRFortessa™ Cell Analyzer (BD Biosciences, Franklin Lake, NJ). Dead cells were excluded by gating on YO—PRO®-1 staining. The number of JEG-3 and MDA-MB-468 cells were determined by the number of events in the Alexa Fluor®647 positive (FRα-positive) and Alexa Fluor®647 negative (FRα-negative) gates, respectively. Percent viability was calculated as the number of cells in treatment condition divided by the number of cells in the no-treatment condition.

CC[C@@]1(O)C(=O)OCc2c1cc1n(c2=O)Cc2c-1nc1cc(F)c(N)cc1c2CNS(C)(=O)=O [Compound 146, (S)—N-((9-amino-4-ethyl-8-fluoro-4-hydroxy-3,14-dioxo-3,4,12,14-tetrahydro-1H-pyrano[3′,4′:6,7]indolizino[1,2-b]quinolin-11-yl)methyl)methanesulfonamide]
IC50 [1]: 4.37 nM
IC50 [2]: 4.37 nM
IC50 [3]: 11.2 nM
IC50 [4]: 6.03 nM
IC50 [5]: 1.74 nM

CC[C@@]1(O)C(=O)OCc2c1cc1n(c2=O)Cc2c-1nc1cc(F)c(N)cc1c2CN1CCN(C)CC1 [Compound 149, (S)-9-amino-4-ethyl-8-fluoro-4-hydroxy-11-((4-methylpiperazin-1-yl)methyl)-1,12-dihydro-14H-pyrano[3′,4′:6,7]indolizino[1,2-b]quinoline-3,14(4H)-dione]
IC50 [1]: 6.31 nM
IC50 [2]: 6.31 nM
IC50 [3]: 10 nM
IC50 [4]: 1.82 nM
IC50 [5]: 3.16 nM

CC[C@@]1(O)C(=O)OCc2c1cc1n(c2=O)Cc2c-1nc1cc(F)c(N)cc1c2CNC(=O)NCCO [Compound 151, (S)-1-((9-amino-4-ethyl-8-fluoro-4-hydroxy-3,14-dioxo-3,4,12,14-tetrahydro-1H-pyrano[3′,4′:6,7]indolizino[1,2-b]quinolin-11-yl)methyl)-3-(2-hydroxyethyl)urea]
IC50 [1]: 11.5 nM
IC50 [2]: 11.5 nM
IC50 [3]: 45.7 nM
IC50 [4]: 5.89 nM
IC50 [5]: 2.69 nM

palivizumab MC-GGFG-AM-DXd1: "ADCs comprising palivizumab (v22277) conjugated to MC-GGFG-AM-DXd1 and MCvcPABC-MMAE were included as negative controls"
bystander activity [6]: negative bystander activity

palivizumab MCvcPABC-MMAE: "ADCs comprising palivizumab (v22277) conjugated to MC-GGFG-AM-DXd1 and MCvcPABC-MMAE were included as negative controls"
bystander activity [6]: negative bystander activity

v22277-MC-GGFG-AM-DXd1: "negative controls palivizumab (anti-RSV) (v22277) conjugated to MC-GGFG-AM-DXd1 (DAR 8) and MCvcPABC-MMAE (DAR 4)"
Average MDA-MB-468 Viability (%) Co-culture [6]: 101.8%
Average MDA-MB-468 Viability (%) Mono-culture [6]: 91.6%
% Bystander Activity [6]: −10.2%

v22277-MCvcPABC-MMAE: "negative controls palivizumab (anti-RSV) (v22277) conjugated to MC-GGFG-AM-DXd1 (DAR 8) and MCvcPABC-MMAE (DAR 4)"
Average MDA-MB-468 Viability (%) Co-culture [6]: 94.2%
Average MDA-MB-468 Viability (%) Mono-culture [6]: 81.3%
% Bystander Activity [6]: −12.9%
